In patent publication US9108983B2, “Pyrrole compounds, a process for their preparation and pharmaceutical compositions containing them” (LES LABORATOIRES SERVIER, priority 2013, dated 2015):
Structures can show the parent of a compound that is named as a salt. Where two headings read alike, the source gives them in different places.

Legend:
[1] = system: RS4;11 leukaemia tumour line; test: In vitro cytotoxicity (Microculture Tetrazolium Assay); format: cell-based; settings: RS4;11 cells, exposed for 48 hours, cell viability, read-out: IC50 (nM) MTT RS4;11
Method: The cytotoxicity studies were carried out on the RS4;11 leukaemia tumour line.
The cells are distributed onto microplates and exposed to the test compounds for 48 hours.
The cell viability is then quantified by a colorimetric assay, the Microculture Tetrazolium Assay (Cancer Res., 1987, 47, 939-942).

Bcl-2 protein = Bcl-2 protein (histag-Bcl-2, UniProtKB P10415) (Homo sapiens (Human), UniProt P10415); test: Inhibition of Bcl-2 by the fluorescence polarisation technique; format: binding; settings: incubation for 2 hours
Procedure, shortened: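 In pH 7.4 buffer (Hepes 10 mM, NaCl 150 mM, Tween20 0.05%), test compounds at increasing concentrations competed with a fluorescein peptide (1.00×10^−8 M final) for histag-Bcl-2 (2.50×10^−8 M final). Readout was fluorescence polarisation after a 2 h incubation.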

Sequence of Bcl-2 protein (P10415 whole entry): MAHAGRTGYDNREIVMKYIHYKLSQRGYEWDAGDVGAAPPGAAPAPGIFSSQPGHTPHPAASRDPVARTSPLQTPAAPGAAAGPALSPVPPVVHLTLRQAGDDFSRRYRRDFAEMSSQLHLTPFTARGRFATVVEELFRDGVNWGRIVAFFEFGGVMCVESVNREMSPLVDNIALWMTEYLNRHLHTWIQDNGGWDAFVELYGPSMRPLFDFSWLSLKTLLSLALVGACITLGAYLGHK

Q: `Cc1c(C(=O)N(c2ccc(O)cc2)c2cccc(C#N)c2)cc(-c2cc(F)ccc2C(=O)N2Cc3ccccc3C[C@H]2CN2CCOCC2)n1C` [Example 419, N-(3-Cyanophenyl)-5-(5-fluoro-2-{[(3S)-3-(morpholin-4-ylmethyl)-3,4-dihydroisoquinolin-2(1H)-yl]carbonyl}phenyl)-N-(4-hydroxyphenyl)-1,2-dimethyl-1H-pyrrole-3-carboxamide hydrochloride] was tested. Which IC50 ([1]; Homo sapiens, RS4-11, 48 h) did it give?
A: 15.8 nM

Q: And the IC50 (Bcl-2 protein; read-out: IC50 (nM) Bcl-2 FP)?
A: 2.8 nM

Q: What does the source list for `COc1ccc(C(=O)N2Cc3ccccc3C[C@H]2CN2CCOCC2)c(-c2cc(C(=O)N(c3ccc(O)c(F)c3)c3cnn(C)c3)c(C)n2C)c1` [Example 407, N-(3-Fluoro-4-hydroxyphenyl)-5-(5-methoxy-2-{[(3S)-3-(morpholin-4-ylmethyl)-3,4-dihydroisoquinolin-2(1H)-yl]carbonyl}phenyl)-1,2-dimethyl-N-(1-methyl-1H-pyrazol-4-yl)-1H-pyrrole-3-carboxamide hydrochloride]?
A: IC50 ([1]; Homo sapiens, RS4-11, 48 h): 150 nM; IC50 (Bcl-2 protein; read-out: IC50 (nM) Bcl-2 FP): 20.6 nM

Q: Which IC50 ([1]; Homo sapiens, RS4-11, 48 h) does the source give for `Cc1c(C(=O)N(c2ccc(O)cc2)c2cnn(C)c2)cc(-c2cc(Cl)ccc2C(=O)N2Cc3ccccc3C[C@H]2CN2CCN3CCOC[C@@H]3C2)n1C` [Example 115, 5-(5-Chloro-2-{[(3S)-3-[(9aS)-hexahydropyrazino[2,1-c][1,4]oxazin-8(1H)-ylmethyl]-3,4-dihydroisoquinolin-2(1H)-yl]carbonyl}phenyl)-N-(4-hydroxyphenyl)-1,2-dimethyl-N-(1-methyl-1H-pyrazol-4-yl)-1H-pyrrole-3-carboxamide dihydrochloride] here?
A: 18.3 nM

Q: And the IC50 (Bcl-2 protein; read-out: IC50 (nM) Bcl-2 FP)?
A: 3.6 nM

Q: How did the IC50 ([1]; Homo sapiens, RS4-11, 48 h) turn out when `Cc1c(C(=O)N(c2ccc(O)cc2)c2cccc(F)c2)cc(-c2cc3c(cc2C(=O)N2Cc4ccccc4C[C@H]2CN2CCOCC2)OCO3)n1C` [Example 16, N-(3-Fluorophenyl)-N-(4-hydroxyphenyl)-1,2-dimethyl-5-(6-{[(3S)-3-(morpholin-4-ylmethyl)-3,4-dihydroisoquinolin-2(1H)-yl]carbonyl}-1,3-benzodioxol-5-yl)-1H-pyrrole-3-carboxamide hydrochloride] was run?
A: 22.7 nM

Q: And the IC50 (Bcl-2 protein; read-out: IC50 (nM) Bcl-2 FP)?
A: 12.6 nM

Q: For `COc1cc(C(=O)N2Cc3ccccc3C[C@H]2CN2CCOCC2)c(-c2cc(C(=O)N(c3ccc(O)cc3)c3cc(C#N)n(C)c3C)c(C)n2C)cc1F` [Example 440, N-(5-Cyano-1,2-dimethyl-1H-pyrrol-3-yl)-5-(5-fluoro-4-methoxy-2-{[(3S)-3-(morpholin-4-ylmethyl)-3,4-dihydroisoquinolin-2(1H)-yl]carbonyl}phenyl)-N-(4-hydroxyphenyl)-1,2-dimethyl-1H-pyrrole-3-carboxamide hydrochloride], which IC50 ([1]; Homo sapiens, RS4-11, 48 h) is on record?
A: 13.6 nM

Q: What about the IC50 (Bcl-2 protein; read-out: IC50 (nM) Bcl-2 FP) of the same compound?
A: 2.6 nM

Q: What does the source list for `Cc1c(C(=O)N(C)c2ccc(O)cc2)cc(-c2cc(CCNC(=O)Oc3ccccc3)ccc2C(=O)N2Cc3ccccc3C[C@H]2C)n1C` [Example 45, Phenyl[2-(3-{4-[(4-hydroxyphenyl)(methyl)carbamoyl]-1,5-dimethyl-1H-pyrrol-2-yl}-4-{[(3R)-3-methyl-3,4-dihydroisoquinolin-2(1H)-yl]carbonyl}-phenyl)ethyl]carbamate]?
A: IC50 ([1]; Homo sapiens): 403 nM; IC50 (Bcl-2 protein; IC50 (nM) Bcl-2 FP): 38.9 nM

Q: How did the IC50 ([1]; Homo sapiens, RS4-11, 48 h) turn out when `COc1cc(C#N)cc(N(C(=O)c2cc(-c3cc(F)ccc3C(=O)N3Cc4ccccc4C[C@H]3CN3CCOCC3)n(C)c2C)c2ccc(O)cc2)c1` [Example 425, N-(3-Cyano-5-methoxyphenyl)-5-(5-fluoro-2-{[(3S)-3-(morpholin-4-ylmethyl)-3,4-dihydroisoquinolin-2(1H)-yl]carbonyl}phenyl)-N-(4-hydroxyphenyl)-1,2-dimethyl-1H-pyrrole-3-carboxamide hydrochloride] was run?
A: 62 nM

Q: What about the IC50 (Bcl-2 protein; read-out: IC50 (nM) Bcl-2 FP) of the same compound?
A: 4.2 nM

Q: What does the source list for `Cc1c(C(=O)N(c2ccc(O)cc2)c2cnn(C)c2)cc(-c2cc(Cl)ccc2C(=O)N2Cc3ccccc3C[C@H]2CN2CC3(CCO3)C2)n1C` [Example 207, 5-(5-Chloro-2-{[(3S)-3-(1-oxa-6-azaspiro[3.3]hept-6-ylmethyl)-3,4-dihydroisoquinolin-2(1H)-yl]carbonyl}phenyl)-N-(4-hydroxyphenyl)-1,2-dimethyl-N-(1-methyl-1H-pyrazol-4-yl)-1H-pyrrole-3-carboxamide]?
A: IC50 ([1]; Homo sapiens, RS4-11, 48 h): 32.2 nM; IC50 (Bcl-2 protein; read-out: IC50 (nM) Bcl-2 FP): 4.6 nM

Q: `Cc1c(C(=O)N(c2ccccc2)c2ccc(O)cc2)cc(-c2cc(F)ccc2C(=O)N2Cc3ccccc3C[C@H]2CN2CCOCC2)n1CCCO` [Example 11, 5-(5-Fluoro-2-{[(3S)-3-(morpholin-4-ylmethyl)-3,4-dihydroisoquinolin-2(1H)-yl]carbonyl}phenyl)-N-(4-hydroxyphenyl)-1-(3-hydroxypropyl)-2-methyl-N-phenyl-1H-pyrrole-3-carboxamide hydrochloride] was tested. Which IC50 ([1]; Homo sapiens, RS4-11, 48 h) did it give?
A: 202 nM

Q: And the IC50 (Bcl-2 protein; read-out: IC50 (nM) Bcl-2 FP)?
A: 14.2 nM

Q: How did the IC50 [1] turn out when `Cc1c(C(=O)N(c2ccc(O)cc2)c2cnc3c(c2)CCN3C)cc(-c2cc3c(cc2C(=O)N2Cc4ccccc4C[C@H]2CN2CCOCC2)OCO3)n1C` [Example 49, N-(4-Hydroxyphenyl)-1,2-dimethyl-N-(1-methyl-2,3-dihydro-1H-pyrrolo[2,3-b]pyridin-5-yl)-5-(6-{[(3S)-3-(morpholin-4-ylmethyl)-3,4-dihydroisoquinolin-2(1H)-yl]carbonyl}-1,3-benzodioxol-5-yl)-1H-pyrrole-3-carboxamide dihyrochloride] was run?
A: 14.1 nM

Q: What about the IC50 (Bcl-2 protein; read-out: IC50 (nM) Bcl-2 FP) of the same compound?
A: 4 nM

Q: With `Cc1c(C(=O)N(c2ccc(O)cc2)c2cnc3c(ccn3C)c2)cc(-c2cc(Cl)ccc2C(=O)N2Cc3ccccc3C[C@H]2CN2CCN(C)CC2)n1C` [Example 102, 5-(5-Chloro-2-{[(3S)-3-[(4-methylpiperazin-1-yl)methyl]-3,4-dihydroisoquinolin-2(1H)-yl]carbonyl}phenyl)-N-(4-hydroxyphenyl)-1,2-dimethyl-N-(1-methyl-1H-pyrrolo[2,3-b]pyridin-5-yl)-1H-pyrrole-3-carboxamide trihydrochloride] as the compound, how does the IC50 ([1]; Homo sapiens, RS4-11, 48 h) read?
A: 6.51 nM

Q: What about the IC50 (Bcl-2 protein; read-out: IC50 (nM) Bcl-2 FP) of the same compound?
A: 2 nM

Q: `Cc1c(C(=O)N(c2ccccc2)c2ccc(O)cc2)cc(-c2cc3c(cc2C(=O)N2Cc4ccccc4C[C@H]2C)OCO3)n1CCN(C)C` [Example 98, 1-[2-(Dimethylamino)ethyl]-N-(4-hydroxyphenyl)-2-methyl-5-(6-{[(3R)-3-methyl-3,4-dihydroisoquinolin-2(1H)-yl]carbonyl}-1,3-benzodioxol-5-yl)-N-phenyl-1H-pyrrole-3-carboxamide hydrochloride] was tested. Which IC50 ([1]; Homo sapiens, RS4-11, 48 h) did it give?
A: 68.3 nM

Q: And the IC50 (Bcl-2 protein; read-out: IC50 (nM) Bcl-2 FP)?
A: 7.6 nM

Q: What does the source list for `Cc1c(C(=O)N(c2ccc(O)cc2)c2cnn(C3COC3)c2)cc(-c2cc(F)ccc2C(=O)N2Cc3ccccc3C[C@H]2CN2CCOCC2)n1C` [Example 423, 5-(5-Fluoro-2-{[(3S)-3-(morpholin-4-ylmethyl)-3,4-dihydroisoquinolin-2(1H)-yl]carbonyl}phenyl)-N-(4-hydroxyphenyl)-1,2-dimethyl-N-[1-(oxetan-3-yl)-1H-pyrazol-4-yl]-1H-pyrrole-3-carboxamide]?
A: IC50 ([1]; Homo sapiens, RS4-11, 48 h): 344 nM; IC50 (Bcl-2 protein; read-out: IC50 (nM) Bcl-2 FP): 11.7 nM

Q: What does the source list for `COCCc1c(C(=O)N(c2ccc(O)cc2)c2cnc3c(ccn3C)c2)cc(-c2cc3c(cc2C(=O)N2Cc4ccccc4C[C@H]2CN2CCOCC2)OCO3)n1C` [Example 88, N-(4-Hydroxyphenyl)-2-(2-methoxyethyl)-1-methyl-N-(1-methyl-1H-pyrrolo[2,3-b]pyridin-5-yl)-5-(6-{[(3S)-3-(morpholin-4-ylmethyl)-3,4-dihydroisoquinolin-2(1H)-yl]carbonyl}4,3-benzodioxol-5-yl)-1H-pyrrole-3-carboxamide hydrochloride]?
A: IC50 [1]: 69.6 nM; IC50 (Bcl-2 protein; read-out: IC50 (nM) Bcl-2 FP): 15.9 nM

Q: `Cc1c(N(C(=O)c2cc(-c3cc(Cl)ccc3C(=O)N3Cc4ccccc4CC3C(F)(F)F)n(C)c2C)c2ccc(O)cc2)cc(C#N)n1C` (stereo not drawn) [Example 454, 5-(5-Chloro-2-{[3-(trifluoromethyl)-3,4-dihydroisoquinolin-2(1H)-yl]carbonyl}phenyl)-N-(5-cyano-1,2-dimethyl-1H-pyrrol-3-yl)-N-(4-hydroxyphenyl)-1,2-dimethyl-1H-pyrrole-3-carboxamide] was tested. Which IC50 ([1]; Homo sapiens, RS4-11, 48 h) did it give?
A: 158 nM

Q: What about the IC50 (Bcl-2 protein; read-out: IC50 (nM) Bcl-2 FP) of the same compound?
A: 6.5 nM

Q: How did the IC50 ([1]; Homo sapiens, RS4-11, 48 h) turn out when `Cc1c(N(C(=O)c2cc(-c3cc(Cl)ccc3C(=O)N3Cc4ccccc4C[C@H]3CN3CCOCC3)n(C)c2C)c2ccccc2)cc(C#N)n1C` [Example 441, 5-(5-Chloro-2-{[(3S)-3-(morpholin-4-ylmethyl)-3,4-dihydroisoquinolin-2(1H)-yl]carbonyl}phenyl)-N-(5-cyano-1,2-dimethyl-1H-pyrrol-3-yl)-1,2-dimethyl-N-phenyl-1H-pyrrole-3-carboxamide hydrochloride] was run?
A: 132 nM

Q: And the IC50 (Bcl-2 protein; read-out: IC50 (nM) Bcl-2 FP)?
A: 3.5 nM

Q: How did the IC50 ([1]; Homo sapiens, RS4-11, 48 h) turn out when `Cc1c(C(=O)N(c2ccccc2)c2ccc(O)cc2)cc(-c2cc3c(cc2C(=O)N2Cc4ccccc4C[C@H]2C)OCO3)n1CCN1CCOCC1` [Example 97, N-(4-Hydroxyphenyl)-2-methyl-5-(6-{[(3R)-3-methyl-3,4-dihydroisoquinolin-2(1H)-yl]carbonyl}-1,3-benzodioxol-5-yl)-1-[2-(morpholin-4-yl)ethyl]-N-phenyl-1H-pyrrole-3-carboxamide hydrochloride] was run?
A: 98 nM

Q: What about the IC50 (Bcl-2 protein; read-out: IC50 (nM) Bcl-2 FP) of the same compound?
A: 19 nM

Q: How did the IC50 ([1]; Homo sapiens, RS4-11, 48 h) turn out when `COC(=O)c1ccnc(N(C(=O)c2cc(-c3cc(Cl)ccc3C(=O)N3Cc4ccccc4C[C@H]3CN3CCOCC3)n(C)c2C)c2ccc(O)cc2)c1` [Example 400, Methyl 2-[{[5-(5-chloro-2-{[(3S)-3-(morpholin-4-ylmethyl)-3,4-dihydroisoquinolin-2(1H)-yl]carbonyl}phenyl)-1,2-dimethyl-1H-pyrrol-3-yl]carbonyl}(4-hydroxyphenyl)amino]pyridine-4-carboxylate hydrochloride] was run?
A: 469 nM

Q: What about the IC50 (Bcl-2 protein; read-out: IC50 (nM) Bcl-2 FP) of the same compound?
A: 49 nM
